{"source": "ChEMBL document CHEMBL4507283", "about": "“Data for DCP probe BI-1935” (2021)", "key": {"[1]": {"target": "5-hydroxytryptamine receptor 1A (Homo sapiens) (UniProt P08908)", "settings": "Compound concentration 10.0 uM"}, "[2]": {"target": "SRSF protein kinase 2 (Homo sapiens) (UniProt P78362)", "settings": "Compound concentration 1000.0 nM"}, "[3]": {"tested_on": "Serine/threonine-protein kinase B-raf (Homo sapiens), P15056 [V600E]", "settings": "Compound concentration 1000.0 nM"}, "[4]": {"tested_on": "Hepatocyte growth factor receptor (Homo sapiens), P08581 [M1250T]", "settings": "Compound concentration 1000.0 nM"}, "[5]": {"target": "Receptor-type tyrosine-protein kinase FLT3 (Homo sapiens) (UniProt P36888)", "settings": "Compound concentration 1000.0 nM"}, "[6]": {"target": "Cyclin-dependent kinase 13 (Homo sapiens) (UniProt Q14004)", "settings": "Compound concentration 1000.0 nM"}, "[7]": {"target": "Bone morphogenetic protein receptor type-2 (Homo sapiens) (UniProt Q13873)", "settings": "Compound concentration 1000.0 nM"}, "[8]": {"target": "Serine/threonine-protein kinase ICK (Homo sapiens) (UniProt Q9UPZ9)", "sequence (Q9UPZ9 whole entry)": "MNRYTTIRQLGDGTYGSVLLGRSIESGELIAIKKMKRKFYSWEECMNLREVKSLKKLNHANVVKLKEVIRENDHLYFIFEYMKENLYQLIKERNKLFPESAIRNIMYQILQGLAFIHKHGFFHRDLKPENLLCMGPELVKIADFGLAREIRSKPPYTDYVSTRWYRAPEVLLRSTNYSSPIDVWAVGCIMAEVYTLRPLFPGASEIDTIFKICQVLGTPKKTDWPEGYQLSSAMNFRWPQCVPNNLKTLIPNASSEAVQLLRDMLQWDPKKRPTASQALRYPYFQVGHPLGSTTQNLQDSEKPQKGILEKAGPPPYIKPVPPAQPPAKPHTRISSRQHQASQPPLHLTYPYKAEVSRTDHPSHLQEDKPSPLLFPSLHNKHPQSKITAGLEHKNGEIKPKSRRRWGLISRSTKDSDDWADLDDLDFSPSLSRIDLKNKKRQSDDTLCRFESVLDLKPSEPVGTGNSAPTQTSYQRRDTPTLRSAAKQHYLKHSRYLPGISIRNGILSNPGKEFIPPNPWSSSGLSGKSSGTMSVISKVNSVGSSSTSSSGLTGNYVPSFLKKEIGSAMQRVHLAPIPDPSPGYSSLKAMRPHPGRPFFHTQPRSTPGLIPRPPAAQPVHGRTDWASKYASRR", "settings": "Compound concentration 1000.0 nM"}, "[9]": {"target": "Epidermal growth factor receptor (Homo sapiens) (UniProt P00533)", "settings": "Compound concentration 1000.0 nM"}, "[10]": {"target": "D(4) dopamine receptor (Homo sapiens) (UniProt P21917)", "settings": "Compound concentration 10.0 uM"}, "[11]": {"target": "Protein-tyrosine kinase 6 (Homo sapiens) (UniProt Q13882)", "sequence (Q13882 whole entry, looked up)": "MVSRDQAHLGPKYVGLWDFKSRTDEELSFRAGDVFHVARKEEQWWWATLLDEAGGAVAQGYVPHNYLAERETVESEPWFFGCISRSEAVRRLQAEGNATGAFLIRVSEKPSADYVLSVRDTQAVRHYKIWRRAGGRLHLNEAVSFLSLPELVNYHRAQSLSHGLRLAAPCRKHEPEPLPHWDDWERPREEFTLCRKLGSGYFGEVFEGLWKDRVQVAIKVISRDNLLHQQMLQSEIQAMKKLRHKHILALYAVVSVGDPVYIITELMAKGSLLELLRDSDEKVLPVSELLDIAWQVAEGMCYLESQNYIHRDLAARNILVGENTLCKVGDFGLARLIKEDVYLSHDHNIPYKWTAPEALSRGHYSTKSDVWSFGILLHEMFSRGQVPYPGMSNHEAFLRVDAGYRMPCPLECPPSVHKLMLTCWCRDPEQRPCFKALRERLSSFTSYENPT", "settings": "Compound concentration 1000.0 nM"}, "[12]": {"target": "Mitogen-activated protein kinase 9 (Homo sapiens) (UniProt P45984)", "settings": "Compound concentration 1000.0 nM"}, "[13]": {"target": "Serine/threonine-protein kinase Nek4 (Homo sapiens) (UniProt P51957)", "sequence (P51957 whole entry, looked up)": "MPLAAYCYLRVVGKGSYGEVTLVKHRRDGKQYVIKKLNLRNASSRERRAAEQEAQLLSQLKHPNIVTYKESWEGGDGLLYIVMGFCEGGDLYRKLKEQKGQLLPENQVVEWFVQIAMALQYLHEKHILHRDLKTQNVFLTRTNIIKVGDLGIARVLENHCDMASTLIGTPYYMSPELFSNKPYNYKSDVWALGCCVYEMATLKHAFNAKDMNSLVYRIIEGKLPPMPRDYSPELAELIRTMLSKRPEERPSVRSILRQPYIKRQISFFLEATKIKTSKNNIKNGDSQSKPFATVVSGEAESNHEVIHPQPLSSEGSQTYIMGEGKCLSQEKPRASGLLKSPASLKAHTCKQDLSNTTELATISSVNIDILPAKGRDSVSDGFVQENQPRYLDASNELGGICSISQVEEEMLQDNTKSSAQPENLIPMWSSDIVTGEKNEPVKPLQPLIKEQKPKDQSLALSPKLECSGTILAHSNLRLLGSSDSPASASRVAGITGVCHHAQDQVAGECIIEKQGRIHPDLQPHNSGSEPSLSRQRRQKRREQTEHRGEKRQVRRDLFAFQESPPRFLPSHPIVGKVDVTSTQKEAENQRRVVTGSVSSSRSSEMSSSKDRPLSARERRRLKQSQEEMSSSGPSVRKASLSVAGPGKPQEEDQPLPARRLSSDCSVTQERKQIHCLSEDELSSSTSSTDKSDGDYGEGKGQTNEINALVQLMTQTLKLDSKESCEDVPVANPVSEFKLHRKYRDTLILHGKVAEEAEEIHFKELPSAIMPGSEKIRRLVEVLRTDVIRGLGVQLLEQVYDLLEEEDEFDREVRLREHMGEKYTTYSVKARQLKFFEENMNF", "settings": "Compound concentration 1000.0 nM"}, "[14]": {"target": "Phosphatidylinositol 5-phosphate 4-kinase type-2 beta (Homo sapiens) (UniProt P78356)", "settings": "Compound concentration 1000.0 nM"}, "[15]": {"target": "Calcium/calmodulin-dependent protein kinase type 1B (Homo sapiens) (UniProt Q6P2M8)", "sequence (Q6P2M8 whole entry)": "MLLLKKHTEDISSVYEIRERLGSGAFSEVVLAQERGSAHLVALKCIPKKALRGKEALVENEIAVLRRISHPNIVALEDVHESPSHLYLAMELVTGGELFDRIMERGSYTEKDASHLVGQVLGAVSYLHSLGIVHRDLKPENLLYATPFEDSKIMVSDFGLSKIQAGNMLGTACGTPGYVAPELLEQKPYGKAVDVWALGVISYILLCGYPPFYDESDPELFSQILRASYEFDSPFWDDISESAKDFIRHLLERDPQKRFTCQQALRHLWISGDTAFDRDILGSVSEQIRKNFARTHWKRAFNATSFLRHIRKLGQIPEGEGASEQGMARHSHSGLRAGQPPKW", "settings": "Compound concentration 1000.0 nM"}, "[16]": {"target": "Calcium/calmodulin-dependent protein kinase type II subunit delta (Homo sapiens) (UniProt Q13557)", "settings": "Compound concentration 1000.0 nM"}, "[17]": {"target": "NUAK family SNF1-like kinase 1 (Homo sapiens) (UniProt O60285)", "sequence (O60285 whole entry)": "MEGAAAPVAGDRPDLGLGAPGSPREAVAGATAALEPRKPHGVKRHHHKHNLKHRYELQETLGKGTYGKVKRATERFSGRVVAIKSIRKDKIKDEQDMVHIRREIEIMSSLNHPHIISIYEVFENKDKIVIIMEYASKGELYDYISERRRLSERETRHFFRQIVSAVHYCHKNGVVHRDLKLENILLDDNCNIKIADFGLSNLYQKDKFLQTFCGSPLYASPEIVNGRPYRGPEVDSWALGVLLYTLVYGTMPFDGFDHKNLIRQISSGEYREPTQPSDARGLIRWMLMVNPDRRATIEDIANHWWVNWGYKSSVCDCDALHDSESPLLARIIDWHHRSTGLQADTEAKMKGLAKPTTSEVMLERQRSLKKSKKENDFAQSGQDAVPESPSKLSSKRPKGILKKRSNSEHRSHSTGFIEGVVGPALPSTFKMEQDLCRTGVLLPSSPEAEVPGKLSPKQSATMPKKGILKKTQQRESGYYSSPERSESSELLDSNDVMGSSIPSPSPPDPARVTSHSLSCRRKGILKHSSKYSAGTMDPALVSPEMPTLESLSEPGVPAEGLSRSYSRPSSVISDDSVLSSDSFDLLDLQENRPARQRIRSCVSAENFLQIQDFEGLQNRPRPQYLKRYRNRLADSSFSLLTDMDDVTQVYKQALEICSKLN", "settings": "Compound concentration 1000.0 nM"}, "[18]": {"target": "Ephrin type-A receptor 1 (Homo sapiens) (UniProt P21709)", "settings": "Compound concentration 1000.0 nM"}, "[19]": {"tested_on": "Phosphatidylinositol 4,5-bisphosphate 3-kinase catalytic subunit alpha isoform (Homo sapiens), P42336 [H1047L]", "settings": "Compound concentration 1000.0 nM"}, "[20]": {"target": "Serine/threonine-protein kinase OSR1 (Homo sapiens) (UniProt O95747)", "settings": "Compound concentration 1000.0 nM"}, "[21]": {"target": "Serine/threonine-protein kinase D2 (Homo sapiens) (UniProt Q9BZL6)", "settings": "Compound concentration 1000.0 nM"}, "[22]": {"target": "Casein kinase I isoform alpha-like (Homo sapiens) (UniProt Q8N752)", "settings": "Compound concentration 1000.0 nM"}, "[23]": {"target": "Serine/threonine-protein kinase RIO2 (Homo sapiens) (UniProt Q9BVS4)", "settings": "Compound concentration 1000.0 nM"}, "[24]": {"target": "Platelet-derived growth factor receptor alpha (Homo sapiens) (UniProt P16234)", "settings": "Compound concentration 1000.0 nM"}, "[25]": {"target": "Serine/threonine-protein kinase B-raf (Homo sapiens) (UniProt P15056)", "settings": "Compound concentration 1000.0 nM"}, "[26]": {"target": "Mitogen-activated protein kinase kinase kinase 2 (Homo sapiens) (UniProt Q9Y2U5)", "settings": "Compound concentration 1000.0 nM"}, "[27]": {"target": "Platelet-derived growth factor receptor beta (Homo sapiens) (UniProt P09619)", "sequence (P09619 whole entry)": "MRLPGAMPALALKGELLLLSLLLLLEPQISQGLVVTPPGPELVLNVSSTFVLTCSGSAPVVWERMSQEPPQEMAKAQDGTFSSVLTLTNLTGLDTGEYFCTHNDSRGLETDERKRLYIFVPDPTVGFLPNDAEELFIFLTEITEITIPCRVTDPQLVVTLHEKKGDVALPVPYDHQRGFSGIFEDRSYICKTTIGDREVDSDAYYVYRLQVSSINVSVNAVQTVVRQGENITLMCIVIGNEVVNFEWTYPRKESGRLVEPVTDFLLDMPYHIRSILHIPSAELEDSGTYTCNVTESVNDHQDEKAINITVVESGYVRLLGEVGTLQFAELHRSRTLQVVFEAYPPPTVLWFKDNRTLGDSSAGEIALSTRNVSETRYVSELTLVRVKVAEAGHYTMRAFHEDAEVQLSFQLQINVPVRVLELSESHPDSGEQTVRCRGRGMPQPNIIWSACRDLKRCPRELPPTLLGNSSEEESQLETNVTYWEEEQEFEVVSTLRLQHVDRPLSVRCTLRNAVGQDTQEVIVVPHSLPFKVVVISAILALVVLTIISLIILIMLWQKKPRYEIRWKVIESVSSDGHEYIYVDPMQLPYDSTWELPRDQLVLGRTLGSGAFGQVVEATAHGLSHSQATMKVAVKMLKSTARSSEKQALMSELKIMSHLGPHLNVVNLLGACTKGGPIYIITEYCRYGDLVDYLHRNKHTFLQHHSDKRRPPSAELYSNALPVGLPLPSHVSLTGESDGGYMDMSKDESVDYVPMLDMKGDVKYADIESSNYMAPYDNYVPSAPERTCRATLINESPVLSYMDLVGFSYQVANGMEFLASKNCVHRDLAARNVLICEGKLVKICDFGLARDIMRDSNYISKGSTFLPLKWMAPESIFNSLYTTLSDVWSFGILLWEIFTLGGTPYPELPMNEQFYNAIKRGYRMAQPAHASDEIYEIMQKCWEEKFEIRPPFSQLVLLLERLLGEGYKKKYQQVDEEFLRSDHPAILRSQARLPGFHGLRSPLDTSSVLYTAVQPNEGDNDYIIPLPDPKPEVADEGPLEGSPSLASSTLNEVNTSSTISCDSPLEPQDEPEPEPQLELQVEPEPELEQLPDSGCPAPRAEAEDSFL", "settings": "Compound concentration 1000.0 nM"}, "[28]": {"target": "Phosphatidylinositol 4,5-bisphosphate 3-kinase catalytic subunit alpha isoform (Homo sapiens) (UniProt P42336)", "settings": "Compound concentration 1000.0 nM"}, "[29]": {"target": "Type-1 angiotensin II receptor (Oryctolagus cuniculus) (UniProt P34976)", "test": "AT1 Eurofins-Panlabs selectivity data (BI)", "settings": "Homo sapiens; Compound concentration 10.0 uM"}, "[30]": {"target": "Testis-specific serine/threonine-protein kinase 1 (Homo sapiens) (UniProt Q9BXA7)", "settings": "Compound concentration 1000.0 nM"}, "[31]": {"target": "Ribosomal protein S6 kinase alpha-6 (Homo sapiens) (UniProt Q9UK32)", "sequence (Q9UK32 whole entry)": "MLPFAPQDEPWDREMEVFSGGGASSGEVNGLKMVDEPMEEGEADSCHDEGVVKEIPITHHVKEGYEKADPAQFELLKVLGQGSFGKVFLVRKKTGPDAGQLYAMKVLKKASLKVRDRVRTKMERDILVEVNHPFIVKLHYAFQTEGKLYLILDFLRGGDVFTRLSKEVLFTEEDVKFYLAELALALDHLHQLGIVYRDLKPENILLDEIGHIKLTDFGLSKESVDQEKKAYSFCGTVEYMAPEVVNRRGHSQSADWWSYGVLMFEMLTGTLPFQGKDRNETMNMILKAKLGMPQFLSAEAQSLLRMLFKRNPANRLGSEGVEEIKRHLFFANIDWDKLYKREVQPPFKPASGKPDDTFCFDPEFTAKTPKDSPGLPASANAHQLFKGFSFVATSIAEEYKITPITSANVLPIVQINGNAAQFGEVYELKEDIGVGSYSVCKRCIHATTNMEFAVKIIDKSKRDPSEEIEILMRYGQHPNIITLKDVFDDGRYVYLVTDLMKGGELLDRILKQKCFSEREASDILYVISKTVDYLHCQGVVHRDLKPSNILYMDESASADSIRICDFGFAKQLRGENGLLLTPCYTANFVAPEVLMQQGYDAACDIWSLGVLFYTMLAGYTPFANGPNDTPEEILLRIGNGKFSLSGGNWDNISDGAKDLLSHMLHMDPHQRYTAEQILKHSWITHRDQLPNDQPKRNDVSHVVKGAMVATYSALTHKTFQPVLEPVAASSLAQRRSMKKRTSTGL", "settings": "Compound concentration 1000.0 nM"}, "[32]": {"target": "Tyrosine-protein kinase receptor Tie-1 (Homo sapiens) (UniProt P35590)", "settings": "Compound concentration 1000.0 nM"}, "[33]": {"target": "Serine/threonine-protein kinase WNK1 (Homo sapiens) (UniProt Q9H4A3)", "settings": "Compound concentration 1000.0 nM"}, "[34]": {"target": "Vascular endothelial growth factor receptor 1 (Homo sapiens) (UniProt P17948)", "settings": "Compound concentration 1000.0 nM"}, "[35]": {"target": "Homeodomain-interacting protein kinase 3 (Homo sapiens) (UniProt Q9H422)", "settings": "Compound concentration 1000.0 nM"}, "[36]": {"target": "Ephrin type-A receptor 8 (Homo sapiens) (UniProt P29322)", "settings": "Compound concentration 1000.0 nM"}, "[37]": {"target": "T1, Bifunctional epoxide hydrolase 2 (Homo sapiens, UniProt P34913)", "T1 sequence (P34913 whole entry)": "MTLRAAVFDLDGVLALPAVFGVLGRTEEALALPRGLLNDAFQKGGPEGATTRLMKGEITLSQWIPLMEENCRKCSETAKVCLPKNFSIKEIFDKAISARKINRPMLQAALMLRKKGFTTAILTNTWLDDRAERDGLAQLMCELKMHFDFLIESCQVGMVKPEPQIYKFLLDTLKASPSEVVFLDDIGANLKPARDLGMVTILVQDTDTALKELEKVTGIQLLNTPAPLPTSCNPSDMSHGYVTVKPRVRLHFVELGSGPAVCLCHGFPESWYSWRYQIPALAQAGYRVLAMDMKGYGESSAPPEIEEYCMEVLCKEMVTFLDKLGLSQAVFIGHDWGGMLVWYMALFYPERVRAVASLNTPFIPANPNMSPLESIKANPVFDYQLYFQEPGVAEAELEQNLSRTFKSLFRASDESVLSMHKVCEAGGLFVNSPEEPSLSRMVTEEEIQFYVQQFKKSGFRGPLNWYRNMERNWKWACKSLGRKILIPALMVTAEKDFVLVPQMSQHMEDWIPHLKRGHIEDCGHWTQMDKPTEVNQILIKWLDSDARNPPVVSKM", "test": "Human soluble epoxide hydrolase inhibition"}, "[38]": {"target": "Mitogen-activated protein kinase 12 (Homo sapiens) (UniProt P53778)", "settings": "Compound concentration 1000.0 nM"}}, "note": "Active and inactive are the calls of the source. No cut-off for these calls is given here.", "data": [{"smiles": "CCOCCn1cc(C(=O)Nc2ccc(-n3nc(-c4cccnc4)cc3C(F)(F)F)cn2)ccc1=O", "note": "[BI 1935]", "values": [{"measurement": "inhibition", "setting": "[1]", "value": 13.9, "unit": "%"}, {"measurement": "residual activity", "setting": "[2]", "value": 100, "unit": "%"}, {"measurement": "residual activity", "setting": "[3]", "value": 97, "unit": "%"}, {"measurement": "residual activity", "setting": "[4]", "value": 96, "unit": "%"}, {"measurement": "residual activity", "setting": "[5]", "value": 63, "unit": "%"}, {"measurement": "residual activity", "setting": "[6]", "value": 92, "unit": "%"}, {"measurement": "residual activity", "setting": "[7]", "value": 100, "unit": "%"}, {"measurement": "residual activity", "setting": "[8]", "value": 99, "unit": "%"}, {"measurement": "residual activity", "setting": "[9]", "value": 100, "unit": "%"}, {"measurement": "inhibition", "setting": "[10]", "value": -3.89, "unit": "%"}, {"measurement": "residual activity", "setting": "[11]", "value": 100, "unit": "%"}, {"measurement": "residual activity", "setting": "[12]", "value": 97, "unit": "%"}, {"measurement": "residual activity", "setting": "[13]", "value": 80, "unit": "%"}, {"measurement": "residual activity", "setting": "[14]", "value": 68, "unit": "%"}, {"measurement": "residual activity", "setting": "[15]", "value": 79, "unit": "%"}, {"measurement": "residual activity", "setting": "[16]", "value": 100, "unit": "%"}, {"measurement": "residual activity", "setting": "[17]", "value": 100, "unit": "%"}, {"measurement": "residual activity", "setting": "[18]", "value": 82, "unit": "%"}, {"measurement": "residual activity", "setting": "[19]", "value": 93, "unit": "%"}, {"measurement": "residual activity", "setting": "[20]", "value": 92, "unit": "%"}, {"measurement": "residual activity", "setting": "[21]", "value": 100, "unit": "%"}, {"measurement": "residual activity", "setting": "[22]", "value": 100, "unit": "%"}, {"measurement": "residual activity", "setting": "[23]", "value": 60, "unit": "%"}, {"measurement": "residual activity", "setting": "[24]", "value": 68, "unit": "%"}, {"measurement": "residual activity", "setting": "[25]", "value": 95, "unit": "%"}, {"measurement": "residual activity", "setting": "[26]", "value": 94, "unit": "%"}, {"measurement": "residual activity", "setting": "[27]", "value": 88, "unit": "%"}, {"measurement": "residual activity", "setting": "[28]", "value": 92, "unit": "%"}, {"measurement": "residual activity", "setting": "[29]", "value": 93, "unit": "%"}, {"measurement": "residual activity", "setting": "[30]", "value": 100, "unit": "%"}, {"measurement": "residual activity", "setting": "[31]", "value": 100, "unit": "%"}, {"measurement": "residual activity", "setting": "[32]", "value": 81, "unit": "%"}, {"measurement": "residual activity", "setting": "[33]", "value": 82, "unit": "%"}, {"measurement": "residual activity", "setting": "[34]", "value": 100, "unit": "%"}, {"measurement": "residual activity", "setting": "[35]", "value": 76, "unit": "%"}, {"measurement": "residual activity", "setting": "[36]", "value": 84, "unit": "%"}, {"measurement": "IC50", "setting": "[37]", "value": "7 nM (active)"}, {"measurement": "residual activity", "setting": "[38]", "value": 65, "unit": "%"}]}]}
